From ChEMBL document CHEMBL1145783, “Development of an orexin-2 receptor selective agonist, [Ala(11), D-Leu(15)]orexin-B” (Bioorg Med Chem Lett, 2003)
pEC50: −log10 of the molar value.

The compounds below were run against T1, Orexin receptor type 2 (Homo sapiens, UniProt O43614) (assay: Agonist activity against human orexin 2 receptor; EC50; nM).
T1 sequence (O43614 whole entry): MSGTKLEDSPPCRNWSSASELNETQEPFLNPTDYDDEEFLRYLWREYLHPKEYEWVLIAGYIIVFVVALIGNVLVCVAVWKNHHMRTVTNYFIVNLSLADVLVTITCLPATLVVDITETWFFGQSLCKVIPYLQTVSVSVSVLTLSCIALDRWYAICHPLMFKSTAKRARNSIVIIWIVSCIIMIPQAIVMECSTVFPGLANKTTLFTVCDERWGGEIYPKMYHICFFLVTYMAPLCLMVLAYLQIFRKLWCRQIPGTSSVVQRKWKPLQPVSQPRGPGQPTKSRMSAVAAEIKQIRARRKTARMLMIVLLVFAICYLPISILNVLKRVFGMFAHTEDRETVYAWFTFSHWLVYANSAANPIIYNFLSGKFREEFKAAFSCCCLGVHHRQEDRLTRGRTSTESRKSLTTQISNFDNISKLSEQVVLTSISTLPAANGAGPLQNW
Format: functional

Row | Compound | pEC50
1 | CC[C@H](C)[C@H](NC(=O)[C@H](CC(C)C)NC(=O)[C@@H](NC(=O)[C@@H](N)CCSC)[C@@H](C)O)C(=O)NCC(=O)N[C@H](C)C(=O)N[C@@H](C)C(=O)N[C@@H](Cc1c[nH]cn1)C(=O)N[C@@H](CC(N)=O)C(=O)NCC(=O)N[C@@H](CO)C(=O)N[C@@H](C)C(=O)N[C@@H](CCC(N)=O)C(=O)N[C@@H](CC(C)C)C(=O)N[C@@H](CC(C)C)C(=O)N[C@@H](CCCN=C(N)N)C(=O)N[C@@H](CCC(N)=O)C(=O)N[C@@H](CC(C)C)C(=O)N[C@@H](CCCN=C(N)N)C(=O)NCC(=O)N[C@@H](CCC(N)=O)C(=O)N[C@@H](CC(C)C)C(=O)NCC(=O)N1CCC[C@H]1C(=O)N1CCC[C@H]1C(=O)NCC(=O)N[C@@H](CO)C(=O)N[C@@H](CCCN=C(N)N)C(N)=O | 7.85
2 | CC[C@H](C)[C@@H](NC(=O)[C@H](CC(C)C)NC(=O)[C@@H](NC(=O)[C@@H](N)CCSC)[C@@H](C)O)C(=O)NCC(=O)N[C@@H](C)C(=O)N[C@@H](C)C(=O)N[C@@H](Cc1c[nH]cn1)C(=O)N[C@@H](CC(N)=O)C(=O)NCC(=O)N[C@@H](CO)C(=O)N[C@@H](C)C(=O)N[C@@H](CCC(N)=O)C(=O)N[C@@H](CC(C)C)C(=O)N[C@@H](CC(C)C)C(=O)N[C@@H](CCCN=C(N)N)C(=O)N[C@@H](CCC(N)=O)C(=O)N[C@@H](CC(C)C)C(=O)N[C@@H](CCCN=C(N)N)C(=O)NCC(=O)N[C@@H](CCC(N)=O)C(=O)N[C@@H](CC(C)C)C(=O)NCC(=O)N1CCC[C@H]1C(=O)N1CCC[C@H]1C(=O)NCC(=O)N[C@@H](CO)C(=O)N[C@@H](CCCN=C(N)N)C(N)=O | < 5.85
3 | CC[C@H](C)[C@H](NC(=O)[C@H](CC(C)C)NC(=O)[C@@H](NC(=O)[C@@H](N)CCSC)[C@@H](C)O)C(=O)NCC(=O)N[C@@H](C)C(=O)N[C@@H](C)C(=O)N[C@@H](Cc1c[nH]cn1)C(=O)N[C@@H](CC(N)=O)C(=O)NCC(=O)N[C@@H](CO)C(=O)N[C@@H](C)C(=O)N[C@@H](CCC(N)=O)C(=O)N[C@@H](CC(C)C)C(=O)N[C@@H](CC(C)C)C(=O)N[C@@H](CCCN=C(N)N)C(=O)N[C@@H](CCC(N)=O)C(=O)N[C@@H](CC(C)C)C(=O)N[C@@H](CCCN=C(N)N)C(=O)N[C@@H](C)C(=O)N[C@@H](CCC(N)=O)C(=O)N[C@@H](CC(C)C)C(=O)NCC(=O)N1CCC[C@H]1C(=O)N1CCC[C@H]1C(=O)NCC(=O)N[C@@H](CO)C(=O)N[C@@H](CCCN=C(N)N)C(N)=O | 9.70
4 | H-MTLIGAAHAGSAQLLRQLRGQLGPPGSR-NH2 | 8.64
5 | H-MTLIGAAHNGSAQALRQLRGQLGPPGSR-NH2 | 8.66
6 | H-MTLIGAGHNGSAQLLRQLRGQLGPPGSR-NH2 | 9.57
7 | H-MALIGAAHNGSAQLLRQLRGQLGPPGSR-NH2 | 8.01
8 | H-MTLIGAAHNGSAQLLRQLRGALGPPGSR-NH2 | 9.34
9 | H-MTLIGAAHNGSAQLLRALRGQLGPPGSR-NH2 | 9.64
10 | CC[C@H](C)[C@H](NC(=O)[C@H](CC(C)C)NC(=O)[C@@H](NC(=O)[C@@H](N)CCSC)[C@@H](C)O)C(=O)NCC(=O)N[C@@H](C)C(=O)N[C@@H](C)C(=O)N[C@@H](Cc1cnc[nH]1)C(=O)N[C@@H](CC(N)=O)C(=O)NCC(=O)N[C@@H](CO)C(=O)N[C@@H](C)C(=O)N[C@@H](CCC(N)=O)C(=O)N[C@@H](CC(C)C)C(=O)N[C@@H](CC(C)C)C(=O)N[C@@H](CCCN=C(N)N)C(=O)N[C@@H](CCC(N)=O)C(=O)N[C@@H](CC(C)C)C(=O)N[C@@H](CCCN=C(N)N)C(=O)NCC(=O)N[C@H](CCC(N)=O)C(=O)N[C@@H](CC(C)C)C(=O)NCC(=O)N1CCC[C@H]1C(=O)N1CCC[C@H]1C(=O)NCC(=O)N[C@@H](CO)C(=O)N[C@@H](CCCN=C(N)N)C(N)=O | 9.49
11 | CC[C@H](C)[C@H](NC(=O)[C@H](CC(C)C)NC(=O)[C@@H](NC(=O)[C@@H](N)CCSC)[C@@H](C)O)C(=O)NCC(=O)N[C@@H](C)C(=O)N[C@@H](C)C(=O)N[C@H](Cc1cnc[nH]1)C(=O)N[C@@H](CC(N)=O)C(=O)NCC(=O)N[C@@H](CO)C(=O)N[C@@H](C)C(=O)N[C@@H](CCC(N)=O)C(=O)N[C@@H](CC(C)C)C(=O)N[C@@H](CC(C)C)C(=O)N[C@@H](CCCN=C(N)N)C(=O)N[C@@H](CCC(N)=O)C(=O)N[C@@H](CC(C)C)C(=O)N[C@@H](CCCN=C(N)N)C(=O)NCC(=O)N[C@@H](CCC(N)=O)C(=O)N[C@@H](CC(C)C)C(=O)NCC(=O)N1CCC[C@H]1C(=O)N1CCC[C@H]1C(=O)NCC(=O)N[C@@H](CO)C(=O)N[C@@H](CCCN=C(N)N)C(N)=O | 9.00

Further lines, results first:

Row | pEC50 | Compound
12 | 9.59 | CC[C@H](C)[C@H](NC(=O)[C@H](CC(C)C)NC(=O)[C@@H](NC(=O)[C@@H](N)CCSC)[C@@H](C)O)C(=O)NCC(=O)N[C@@H](C)C(=O)N[C@@H](C)C(=O)N[C@@H](Cc1cnc[nH]1)C(=O)N[C@H](CC(N)=O)C(=O)NCC(=O)N[C@@H](CO)C(=O)N[C@@H](C)C(=O)N[C@@H](CCC(N)=O)C(=O)N[C@@H](CC(C)C)C(=O)N[C@@H](CC(C)C)C(=O)N[C@@H](CCCN=C(N)N)C(=O)N[C@@H](CCC(N)=O)C(=O)N[C@@H](CC(C)C)C(=O)N[C@@H](CCCN=C(N)N)C(=O)NCC(=O)N[C@@H](CCC(N)=O)C(=O)N[C@@H](CC(C)C)C(=O)NCC(=O)N1CCC[C@H]1C(=O)N1CCC[C@H]1C(=O)NCC(=O)N[C@@H](CO)C(=O)N[C@@H](CCCN=C(N)N)C(N)=O
13 | < 6.70 | CC[C@H](C)[C@H](NC(=O)[C@@H](CC(C)C)NC(=O)[C@@H](NC(=O)[C@@H](N)CCSC)[C@@H](C)O)C(=O)NCC(=O)N[C@@H](C)C(=O)N[C@@H](C)C(=O)N[C@@H](Cc1cnc[nH]1)C(=O)N[C@@H](CC(N)=O)C(=O)NCC(=O)N[C@@H](CO)C(=O)N[C@@H](C)C(=O)N[C@@H](CCC(N)=O)C(=O)N[C@@H](CC(C)C)C(=O)N[C@@H](CC(C)C)C(=O)N[C@@H](CCCN=C(N)N)C(=O)N[C@@H](CCC(N)=O)C(=O)N[C@@H](CC(C)C)C(=O)N[C@@H](CCCN=C(N)N)C(=O)NCC(=O)N[C@@H](CCC(N)=O)C(=O)N[C@@H](CC(C)C)C(=O)NCC(=O)N1CCC[C@H]1C(=O)N1CCC[C@H]1C(=O)NCC(=O)N[C@@H](CO)C(=O)N[C@@H](CCCN=C(N)N)C(N)=O
14 | 9.64 | H-MTLIGAAHNGSAQLLRQLRGQLGPAGSR-NH2
15 | 9.70 | CC[C@H](C)[C@H](NC(=O)[C@H](CC(C)C)NC(=O)[C@@H](NC(=O)[C@@H](N)CCSC)[C@@H](C)O)C(=O)NCC(=O)N[C@@H](C)C(=O)N[C@@H](C)C(=O)N[C@@H](Cc1c[nH]cn1)C(=O)N[C@@H](CC(N)=O)C(=O)NCC(=O)N[C@@H](CO)C(=O)N[C@@H](C)C(=O)N[C@@H](CCC(N)=O)C(=O)N[C@@H](CC(C)C)C(=O)N[C@@H](CC(C)C)C(=O)N[C@@H](CCCN=C(N)N)C(=O)N[C@@H](CCC(N)=O)C(=O)N[C@@H](CC(C)C)C(=O)N[C@@H](CCCN=C(N)N)C(=O)NCC(=O)N[C@@H](CCC(N)=O)C(=O)N[C@@H](CC(C)C)C(=O)N[C@H](C)C(=O)N1CCC[C@H]1C(=O)N1CCC[C@H]1C(=O)NCC(=O)N[C@@H](CO)C(=O)N[C@@H](CCCN=C(N)N)C(N)=O
16 | 9.06 | CC[C@H](C)[C@H](NC(=O)[C@H](CC(C)C)NC(=O)[C@@H](NC(=O)[C@@H](N)CCSC)[C@@H](C)O)C(=O)NCC(=O)N[C@@H](C)C(=O)N[C@@H](C)C(=O)N[C@@H](Cc1c[nH]cn1)C(=O)N[C@@H](CC(N)=O)C(=O)NCC(=O)N[C@@H](CO)C(=O)N[C@@H](C)C(=O)N[C@@H](CCC(N)=O)C(=O)N[C@@H](CC(C)C)C(=O)N[C@@H](CC(C)C)C(=O)N[C@@H](CCCN=C(N)N)C(=O)N[C@@H](CCC(N)=O)C(=O)N[C@@H](CC(C)C)C(=O)N[C@H](CCCN=C(N)N)C(=O)NCC(=O)N[C@@H](CCC(N)=O)C(=O)N[C@@H](CC(C)C)C(=O)NCC(=O)N1CCC[C@H]1C(=O)N1CCC[C@H]1C(=O)NCC(=O)N[C@@H](CO)C(=O)N[C@@H](CCCN=C(N)N)C(N)=O
17 | 9.66 | H-MTLIGAAHNGSAQLLRQLRGQLGPPGAR-NH2
18 | < 6.54 | CC[C@H](C)[C@H](NC(=O)[C@H](CC(C)C)NC(=O)[C@@H](NC(=O)[C@H](N)CCSC)[C@@H](C)O)C(=O)NCC(=O)N[C@@H](C)C(=O)N[C@@H](C)C(=O)N[C@@H](Cc1c[nH]cn1)C(=O)N[C@@H](CC(N)=O)C(=O)NCC(=O)N[C@@H](CO)C(=O)N[C@@H](C)C(=O)N[C@@H](CCC(N)=O)C(=O)N[C@@H](CC(C)C)C(=O)N[C@@H](CC(C)C)C(=O)N[C@@H](CCCN=C(N)N)C(=O)N[C@@H](CCC(N)=O)C(=O)N[C@@H](CC(C)C)C(=O)N[C@@H](CCCN=C(N)N)C(=O)NCC(=O)N[C@@H](CCC(N)=O)C(=O)N[C@@H](CC(C)C)C(=O)NCC(=O)N1CCC[C@H]1C(=O)N1CCC[C@H]1C(=O)NCC(=O)N[C@@H](CO)C(=O)N[C@@H](CCCN=C(N)N)C(N)=O
19 | 10.19 | H-MTLIGAAHNGSAQLARQLRGQLGPPGSR-NH2
20 | 9.82 | CC[C@H](C)[C@H](NC(=O)[C@H](CC(C)C)NC(=O)[C@@H](NC(=O)[C@@H](N)CCSC)[C@@H](C)O)C(=O)NCC(=O)N[C@@H](C)C(=O)N[C@@H](C)C(=O)N[C@@H](Cc1c[nH]cn1)C(=O)N[C@@H](CC(N)=O)C(=O)NCC(=O)N[C@@H](CO)C(=O)N[C@@H](C)C(=O)N[C@@H](CCC(N)=O)C(=O)N[C@@H](CC(C)C)C(=O)N[C@@H](CC(C)C)C(=O)N[C@@H](CCCN=C(N)N)C(=O)N[C@@H](CCC(N)=O)C(=O)N[C@@H](CC(C)C)C(=O)N[C@@H](CCCN=C(N)N)C(=O)NCC(=O)N[C@@H](CCC(N)=O)C(=O)N[C@@H](CC(C)C)C(=O)NCC(=O)N1CCC[C@H]1C(=O)N1CCC[C@@H]1C(=O)NCC(=O)N[C@@H](CO)C(=O)N[C@@H](CCCN=C(N)N)C(N)=O
